Source: article PMC4920026 (Scientific Reports, 2016)
Where two headings read alike, the source gives them in different places.

Biological target: huPrP(23–230) (Homo sapiens, UniProt P04156)
Format: binding
Details: for k2 (microscopic association constant of xenon to the open state): k1 = 0, pH 4.5

[Xe] [xenon]
ΔG24 (free energy of xenon binding to the open state) (binding site A1, 293 K): -19.7 ± 0.3 kJ/M | Kd (binding site A1, Kapp = 1/k2 + k3/k2, 293 K, read-out: Kapp Xe (apparent xenon dissociation constant)): 12.5 mM | k2 (microscopic association constant of xenon to the open state) (binding site A1, 293 K): 3.2 ± 0.4 mM⁻¹ | ΔG24 (free energy of xenon binding to the open state) (binding site A2, 293 K): -14.91 ± 0.03 kJ/M | Kd (binding site A2, Kapp = 1/k2 + k3/k2, 293 K, read-out: Kapp Xe (apparent xenon dissociation constant)): 14.6 mM | k2 (microscopic association constant of xenon to the open state) (binding site A2, 293 K): 0.46 ± 0.01 mM⁻¹ | ΔG24 (free energy of xenon binding to the open state) (binding site B, 293 K): -20.5 ± 0.2 kJ/M | Kd (binding site B, Kapp = 1/k2 + k3/k2, 293 K, read-out: Kapp Xe (apparent xenon dissociation constant)): 9.1 mM | k2 (microscopic association constant of xenon to the open state) (binding site B, 293 K, k3 set to 39): 4.5 ± 0.4 mM⁻¹ | ΔG24 (free energy of xenon binding to the open state) (binding site C, 293 K): -11.5 ± 0.7 kJ/M | Kd (binding site C, Kapp = 1/k2 + k3/k2, 293 K, read-out: Kapp Xe (apparent xenon dissociation constant)): 11.4 mM | k2 (microscopic association constant of xenon to the open state) (binding site C, 293 K): 0.11 ± 0.03 mM⁻¹ | ΔG24 (free energy of xenon binding to the open state) (binding site D, 293 K): -14.24 ± 0.02 kJ/M | Kd (binding site D, Kapp = 1/k2 + k3/k2, 293 K, read-out: Kapp Xe (apparent xenon dissociation constant)): 11.8 mM | k2 (microscopic association constant of xenon to the open state) (binding site D, 293 K): 0.34 ± 0.02 mM⁻¹ | apparent xenon affinities k2/(1 + k3) (order of magnitude, over all cavities): ~0.1 mM⁻¹ | Kd (order of magnitude, over all cavities, read-out: apparent dissociation constants): ~10 mM
